In patent US20260042764A1, “COMPOSITIONS AND METHODS FOR INHIBITION OF KRAS” (TheRas, Inc., priority 2022, published 2026):

Legend:
[1] = target: T1, Avi-KRAS WT (1-169) GppNHp/RAF1 RBD-3xFLAG (52-151) (Homo sapiens, UniProt P01116); assay: Raf1-KRAS WT-GppNHP disruption HTRF assay (Biological Example 1); type: binding
T1 construct: Avi-KRAS WT (1-169)
Outline: (§1)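 Compound disruption of KRAS-GppNHp/RAF1 RBD binding read by HTRF after two sequential 1 h room-temperature incubations (protein mix, then detection reagents), shaken at 700 rpm. Buffer Tris pH 7.5 with MgCl2, BSA, Tween and 10% DMSO; results given as percent activity relative to DMSO (100%).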

[2] = target: T2, Avi-KRAS G12V (1-169) GppNHp/RAF1 RBD-3xFLAG (52-151) (Homo sapiens, UniProt P01116, G12V); assay: Raf1-KRAS G12V-GppNHP disruption HTRF assay (Biological Example 1); type: binding
T2 construct: Avi-KRAS G12V (1-169)
T2 sequence (P01116 1-169 isoform P01116-2 G12V): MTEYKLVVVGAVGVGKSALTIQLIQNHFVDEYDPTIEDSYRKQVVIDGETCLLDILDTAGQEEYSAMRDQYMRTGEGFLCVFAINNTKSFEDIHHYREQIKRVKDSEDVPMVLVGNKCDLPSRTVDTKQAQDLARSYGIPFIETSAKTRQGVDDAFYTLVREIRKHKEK
Outline: as §1

[3] = system: SW620 cells (KRAS G12V); assay: Cell-based pERK HTRF assay in SW620 cell (Biological Example 4); details: Homo sapiens, SW-620, SW620 (KRAS G12V) cells, pERK HTRF
Outline: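 SW620 seeded in RPMI/10% FBS, next day dosed 4 h (top 1 μM, half-log, 9 pts, 0.25% DMSO). Lysed, pERK by d2/Eu cryptate HTRF, 4–24 h RT, 615 nm read.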

[4] = system: GP2d cells (KRAS G12D); assay: Cell-based pERK HTRF assay in GP2d cell (Biological Example 2); details: GP2d, GP2d (KRAS G12D) cells, pERK HTRF
Outline: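 60 min compound, 0.25% DMSO, 9-pt half-log curve from 1 μM or 100 nM; DMEM/10% FBS.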

[5] = target: T3, Avi-KRAS G12R (1-169) GppNHp/RAF1 RBD-3xFLAG (52-151) (Homo sapiens, UniProt P01116, G12R); assay: Raf1-KRAS G12R-GppNHP disruption HTRF assay (Biological Example 1); type: binding
T3 construct: Avi-KRAS G12R (1-169)
T3 sequence (P01116 1-169 isoform P01116-2 G12R): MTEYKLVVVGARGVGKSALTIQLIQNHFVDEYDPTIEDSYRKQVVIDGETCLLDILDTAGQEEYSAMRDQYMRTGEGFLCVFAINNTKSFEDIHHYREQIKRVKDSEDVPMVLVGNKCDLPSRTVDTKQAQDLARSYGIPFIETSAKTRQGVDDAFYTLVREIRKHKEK
Outline: as §1

[6] = target: T4, Avi-KRAS G12D (1-169) GppNHp/RAF1 RBD-3xFLAG (52-151) (Homo sapiens, UniProt P01116, G12D); assay: Raf1-KRAS G12D-GppNHP disruption HTRF assay (Biological Example 1); type: binding
T4 construct: Avi-KRAS G12D (1-169)
T4 sequence (P01116 1-169 isoform P01116-2 G12D): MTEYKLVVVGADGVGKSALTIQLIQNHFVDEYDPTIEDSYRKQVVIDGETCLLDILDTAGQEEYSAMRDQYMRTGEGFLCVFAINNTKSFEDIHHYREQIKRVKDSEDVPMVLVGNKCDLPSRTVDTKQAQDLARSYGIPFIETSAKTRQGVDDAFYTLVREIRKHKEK
Outline: as §1

[7] = KRAS WT, GppNHp-loaded, class symbols
[8] = KRAS G12V, GppNHp-loaded, class symbols
[9] = KRAS G12R, GppNHp-loaded, class symbols
[10] = KRAS G12D, GppNHp-loaded, class symbols
[11] = KRAS WT, GppNHp-loaded, Table 11
[12] = KRAS G12V, GppNHp-loaded, Table 11
[13] = KRAS G12R, GppNHp-loaded, Table 11
[14] = KRAS G12D, GppNHp-loaded, Table 11

T1 sequence (P01116 1-169 isoform P01116-2): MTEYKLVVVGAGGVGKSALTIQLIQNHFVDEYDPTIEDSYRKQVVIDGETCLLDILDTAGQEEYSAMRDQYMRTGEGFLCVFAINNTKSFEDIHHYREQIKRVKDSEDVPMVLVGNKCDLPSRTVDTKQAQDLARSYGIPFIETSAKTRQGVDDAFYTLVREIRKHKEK

Compound	IC50 [1, 7]	IC50 [2, 8]	IC50 ([3]; class symbols)	IC50 ([4]; class symbols)	IC50 [5, 9]	IC50 [6, 10]	IC50 ([1]; KRAS WT-GppNHp/RAF1 RBD HTRF)	IC50 ([2]; KRAS G12V-GppNHp/RAF1 RBD HTRF)	IC50 [3]	IC50 [4]	IC50 ([5]; KRAS G12R-GppNHp/RAF1 RBD HTRF)	IC50 ([6]; KRAS G12D-GppNHp/RAF1 RBD HTRF)	IC50 [1, 11]	IC50 [2, 12]	IC50 [5, 13]	IC50 [6, 14]
N#Cc1c(N)sc2c(F)ccc(-c3c(C(F)(F)F)cc4c(N5CCn6nncc6C5)nc(OC[C@@]56CCCN5C[C@H](F)C6)nc4c3F)c12 [Compound 243]									< 100 nM	< 100 nM			100 to 1000 nM	100 to 1000 nM	100 to 1000 nM	100 to 1000 nM
CC(=O)N1C[C@@H]2CCN(c3nc(OC[C@@]45CCCN4C[C@H](F)C5)nc4c(F)c(-c5ccc(F)c6sc(N)c(C#N)c56)c(C(F)(F)F)cc34)[C@@H]2C1 [Compound 211]									100 to 1000 nM	< 100 nM			100 to 1000 nM	1000 to 10000 nM	1000 to 10000 nM	100 to 1000 nM
N#Cc1c(N)sc2c(F)ccc(-c3c(C(F)(F)F)cc4c(N5CCNC(=O)CC5)nc(OC[C@@]56CCCN5C[C@H](F)C6)nc4c3F)c12 [Compound 251]									100 to 1000 nM	< 100 nM			100 to 1000 nM	100 to 1000 nM	100 to 1000 nM	100 to 1000 nM
CN(CC(F)(F)F)c1nc(OC[C@@]23CCCN2C[C@H](F)C3)nc2c(F)c(-c3ccc(F)c4sc(N)c(C#N)c34)c(C(F)(F)F)cc12 [Compound 165]									< 100 nM	< 100 nM			100 to 1000 nM	100 to 1000 nM	100 to 1000 nM	100 to 1000 nM
N#Cc1c(N)sc2c(F)ccc(-c3c(C(F)(F)F)cc4c(N5CCOCC(O)C5)nc(OC[C@@]56CCCN5C[C@H](F)C6)nc4c3F)c12 (stereo partly drawn) [Compound 266]									< 100 nM	< 100 nM			< 100 nM	100 to 1000 nM	< 100 nM	< 100 nM
N#Cc1c(N)sc2c(F)ccc(-c3c(C(F)(F)F)cc4c(N5C6CCC5CS(=O)(=O)C6)nc(OC[C@@]56CCCN5C[C@H](F)C6)nc4c3F)c12 [Compound 320]							100 to 1000 nM	1000 to 10000 nM	< 100 nM	< 100 nM	1000 to 10000 nM	100 to 1000 nM				

Second part, the compound after the results:

IC50 [1, 7]	IC50 [2, 8]	IC50 ([3]; class symbols)	IC50 ([4]; class symbols)	IC50 [5, 9]	IC50 [6, 10]	IC50 ([1]; KRAS WT-GppNHp/RAF1 RBD HTRF)	IC50 ([2]; KRAS G12V-GppNHp/RAF1 RBD HTRF)	IC50 [3]	IC50 [4]	IC50 ([5]; KRAS G12R-GppNHp/RAF1 RBD HTRF)	IC50 ([6]; KRAS G12D-GppNHp/RAF1 RBD HTRF)	IC50 [1, 11]	IC50 [2, 12]	IC50 [5, 13]	IC50 [6, 14]	Compound
< 100 nM	< 100 nM	< 100 nM	< 100 nM	< 100 nM	< 100 nM											CCN(c1nc(OC[C@@]23CCCN2C[C@H](F)C3)nc2c(F)c(-c3ccc(F)c4sc(N)c(C#N)c34)c(C(F)(F)F)cc12)[C@H]1CCN(C(=O)c2cnn(C)c2)C1 (atropisomer, axis not shown) [Compound 748]
						100 to 1000 nM	1000 to 10000 nM	100 to 1000 nM	< 100 nM	1000 to 10000 nM	100 to 1000 nM					CCN(c1nc(OC[C@@]23CCCN2C[C@H](F)C3)nc2c(F)c(-c3ccc(F)c4sc(N)c(C#N)c34)c(Cl)cc12)[C@@H]1CCN(C(C)=O)[C@H]1C [Compound 416]
						1000 to 10000 nM	1000 to 10000 nM	100 to 1000 nM	< 100 nM	1000 to 10000 nM	1000 to 10000 nM					N#Cc1c(N)sc2c(F)ccc(-c3c(C(F)(F)F)cc4c(N5C[C@H]6C[C@@H]5[C@@H](O)C6)nc(OC[C@@]56CCCN5C[C@H](F)C6)nc4c3F)c12 [Compound 360]
< 100 nM	100 to 1000 nM	< 100 nM	< 100 nM	< 100 nM	< 100 nM											CCN(c1nc(OC[C@@]23CCCN2C[C@H](F)C3)nc2c(F)c(-c3ccc(F)c4sc(N)c(C#N)c34)c(C(F)(F)F)cc12)[C@H]1CCN(C(=O)[C@@H](C)OC)[C@@H]1C (atropisomer, axis not shown) [Compound 806]
						< 100 nM	< 100 nM	< 100 nM	< 100 nM	< 100 nM	< 100 nM					CCN(c1nc(OC[C@@]23CCCN2C[C@H](F)C3)nc2c(F)c(-c3ccc(F)c4sc(N)c(C#N)c34)c(C(F)(F)F)cc12)[C@H]1CCN(C(=O)N2CCCC2)C1 [Compound 542]
